Results: patent publication US4267112A, “Antibiotic U-58,431” (The Upjohn Company, priority 1979, dated 1981)

Key:
[1] = tested on: P. vulgaris; assay: activity against P. vulgaris (general statement); format: cell-based
Method: (§1) The antibacterial assay is a standard microbiological broth assay. The MIC is determined by standard methods using two-fold dilutions of the antibiotic in Brian Heart Infusion Broth (Difco Lab., Detroit, Michigan). The inocula are overnight cultures of the test organisms, diluted so that the final population contains approximately 10^5 cells/ml. The tubes are incubated at 28° to 37° C. for 42 hours. The lowest antibiotic concentration which allows no growth=MIC or minimum inhibitory concentration.

[2] = solubilities; format: physicochemical
[3] = tested on: Salmonella schottmuelleri UC 126; assay: antibacterial broth MIC assay; format: cell-based; conditions: Brain Heart Infusion Broth, 42 hours
Method: as §1

[4] = tested on: Diplococcus pneumoniae UC 41; assay: antibacterial broth MIC assay; format: cell-based; conditions: Brain Heart Infusion Broth, 42 hours
Method: as §1

[5] = tested on: Streptococcus hemolyticus UC 152; assay: antibacterial broth MIC assay; format: cell-based; conditions: Brain Heart Infusion Broth, 42 hours
Method: as §1

[6] = tested on: Staphylococcus aureus UC 746; assay: antibacterial broth MIC assay; format: cell-based; conditions: Brain Heart Infusion Broth, 42 hours
Method: as §1

[7] = tested on: Staphylococcus aureus 284 UC 76; assay: antibacterial broth MIC assay; format: cell-based; conditions: Brain Heart Infusion Broth, 42 hours
Method: as §1

[8] = tested on: Pseudomonas aeruginosa UC 95; assay: antibacterial broth MIC assay; format: cell-based; conditions: Brain Heart Infusion Broth, 42 hours
Method: as §1

[9] = tested on: Streptococcus faecalis UC 694; assay: antibacterial broth MIC assay; format: cell-based; conditions: Brain Heart Infusion Broth, 42 hours
Method: as §1

[10] = tested on: Proteus vulgaris UC 93; assay: antibacterial broth MIC assay; format: cell-based; conditions: Brain Heart Infusion Broth, 42 hours
Method: as §1

[11] = tested on: Escherichia coli UC 45; assay: antibacterial broth MIC assay; format: cell-based; conditions: Brain Heart Infusion Broth, 42 hours
Method: as §1

[12] = tested on: Staphylococcus aureus UC 570; assay: antibacterial broth MIC assay; format: cell-based; conditions: Brain Heart Infusion Broth, 42 hours
Method: as §1

[13] = tested on: Klebsiella pneumoniae UC 58; assay: antibacterial broth MIC assay; format: cell-based; conditions: Brain Heart Infusion Broth, 42 hours
Method: as §1

[14] = tested on: fungi; assay: antifungal activity (general statement); format: cell-based
Method: (§2) An agar dilution method is used. 100 mg amounts of material is solubilized in 1 ml of dimethylformamide (DMF) and diluted to 10 ml with mycophil Broth (BBL labs.) unless completely soluble in water. The material to be tested is incorporated in melted (48° C.) mycophil Agar at concentrations of 1000, 100, 10 and 1 mcg/ml. Fifteen ml of agar is pipetted into a petri dish. After solidification, the surface is streaked with agar spore suspensions of human fungal pathogens. The suspensions are made by adding 10 ml sterile distilled water to agar slants of the test organisms. The slant surface is scraped with a sterile inoculating needle, and 0.5 ml of this suspension is added to 9.5 ml melted (48° C.) mycophil Agar in a stamp streak well. (Each stamp streak base has 6 wells.)
The streaked plates are incubated at 28° C. for 72 hours at which time results are recorded. Readings are by visual observation.

[15] = tested on: Nocardia asteroides UC 2052; assay: antifungal agar dilution test; format: cell-based; design: key: -: inhibition; +: no inhibition; conditions: 28° C., 72 hours
Method: as §2, with “The antifungal spectrum for antibiotic U-58,431 was conducted on a standard agar […] assay. The results are as follows: An” for “An”, “slants” left out, “wells.) The streaked plates are incubated at 28° C. for 72 hours at which time results are recorded. Readings are by visual observation.” for “wells.)”

[16] = tested on: Hormodendrum compactum UC 1222; assay: antifungal agar dilution test; format: cell-based; design: key: -: inhibition; +: no inhibition; conditions: 28° C., 72 hours
Method: as §2, with “The antifungal spectrum for antibiotic U-58,431 was conducted on a standard agar […] assay. The results are as follows: An” for “An”, “slants” left out, “wells.) The streaked plates are incubated at 28° C. for 72 hours at which time results are recorded. Readings are by visual observation.” for “wells.)”

[17] = tested on: Geotrichum sp. UC 1207; assay: antifungal agar dilution test; format: cell-based; design: key: -: inhibition; +: no inhibition; conditions: 28° C., 72 hours
Method: as §2, with “The antifungal spectrum for antibiotic U-58,431 was conducted on a standard agar […] assay. The results are as follows: An” for “An”, “slants” left out, “wells.) The streaked plates are incubated at 28° C. for 72 hours at which time results are recorded. Readings are by visual observation.” for “wells.)”

[18] = tested on: Candida albicans UC 7163; assay: antifungal agar dilution test; format: cell-based; design: key: -: inhibition; +: no inhibition; conditions: 28° C., 72 hours
Method: as §2, with “The antifungal spectrum for antibiotic U-58,431 was conducted on a standard agar […] assay. The results are as follows: An” for “An”, “slants” left out, “wells.) The streaked plates are incubated at 28° C. for 72 hours at which time results are recorded. Readings are by visual observation.” for “wells.)”

[19] = tested on: Trichophyton asteroides UC 4775; assay: antifungal agar dilution test; format: cell-based; design: key: -: inhibition; +: no inhibition; conditions: 28° C., 72 hours
Method: as §2, with “The antifungal spectrum for antibiotic U-58,431 was conducted on a standard agar […] assay. The results are as follows: An” for “An”, “slants” left out, “wells.) The streaked plates are incubated at 28° C. for 72 hours at which time results are recorded. Readings are by visual observation.” for “wells.)”

[20] = tested on: Cryptococcus neoformans UC 4869; assay: antifungal agar dilution test; format: cell-based; design: key: -: inhibition; +: no inhibition; conditions: 28° C., 72 hours
Method: as §2, with “The antifungal spectrum for antibiotic U-58,431 was conducted on a standard agar […] assay. The results are as follows: An” for “An”, “slants” left out, “wells.) The streaked plates are incubated at 28° C. for 72 hours at which time results are recorded. Readings are by visual observation.” for “wells.)”

[21] = tested on: Trichophyton mentagrophytes UC 4797; assay: antifungal agar dilution test; format: cell-based; design: key: -: inhibition; +: no inhibition; conditions: 28° C., 72 hours
Method: as §2, with “The antifungal spectrum for antibiotic U-58,431 was conducted on a standard agar […] assay. The results are as follows: An” for “An”, “slants” left out, “wells.) The streaked plates are incubated at 28° C. for 72 hours at which time results are recorded. Readings are by visual observation.” for “wells.)”

[22] = tested on: Candida albicans UC 7164; assay: antifungal agar dilution test; format: cell-based; design: key: -: inhibition; +: no inhibition; conditions: 28° C., 72 hours
Method: as §2, with “The antifungal spectrum for antibiotic U-58,431 was conducted on a standard agar […] assay. The results are as follows: An” for “An”, “slants” left out, “wells.) The streaked plates are incubated at 28° C. for 72 hours at which time results are recorded. Readings are by visual observation.” for “wells.)”

[23] = tested on: Cryptococcus neoformans UC 1139; assay: antifungal agar dilution test; format: cell-based; design: key: -: inhibition; +: no inhibition; conditions: 28° C., 72 hours
Method: as §2, with “The antifungal spectrum for antibiotic U-58,431 was conducted on a standard agar […] assay. The results are as follows: An” for “An”, “slants” left out, “wells.) The streaked plates are incubated at 28° C. for 72 hours at which time results are recorded. Readings are by visual observation.” for “wells.)”

[24] = tested on: Trichophyton violaceum UC 1459; assay: antifungal agar dilution test; format: cell-based; design: key: -: inhibition; +: no inhibition; conditions: 28° C., 72 hours
Method: as §2, with “The antifungal spectrum for antibiotic U-58,431 was conducted on a standard agar […] assay. The results are as follows: An” for “An”, “slants” left out, “wells.) The streaked plates are incubated at 28° C. for 72 hours at which time results are recorded. Readings are by visual observation.” for “wells.)”

[25] = tested on: Blastomyces dermatidis UC 1466; assay: antifungal agar dilution test; format: cell-based; design: key: -: inhibition; +: no inhibition; conditions: 28° C., 72 hours
Method: as §2, with “The antifungal spectrum for antibiotic U-58,431 was conducted on a standard agar […] assay. The results are as follows: An” for “An”, “slants” left out, “wells.) The streaked plates are incubated at 28° C. for 72 hours at which time results are recorded. Readings are by visual observation.” for “wells.)”

[26] = tested on: Trichophyton mentagrophytes UC 4860; assay: antifungal agar dilution test; format: cell-based; design: key: -: inhibition; +: no inhibition; conditions: 28° C., 72 hours
Method: as §2, with “The antifungal spectrum for antibiotic U-58,431 was conducted on a standard agar […] assay. The results are as follows: An” for “An”, “slants” left out, “wells.) The streaked plates are incubated at 28° C. for 72 hours at which time results are recorded. Readings are by visual observation.” for “wells.)”

[27] = tested on: Trichophyton rubrum UC 1458; assay: antifungal agar dilution test; format: cell-based; design: key: -: inhibition; +: no inhibition; conditions: 28° C., 72 hours
Method: as §2, with “The antifungal spectrum for antibiotic U-58,431 was conducted on a standard agar […] assay. The results are as follows: An” for “An”, “slants” left out, “wells.) The streaked plates are incubated at 28° C. for 72 hours at which time results are recorded. Readings are by visual observation.” for “wells.)”

[28] = tested on: Sporotrichum schenckii UC 1364; assay: antifungal agar dilution test; format: cell-based; design: key: -: inhibition; +: no inhibition; conditions: 28° C., 72 hours
Method: as §2, with “The antifungal spectrum for antibiotic U-58,431 was conducted on a standard agar […] assay. The results are as follows: An” for “An”, “slants” left out, “wells.) The streaked plates are incubated at 28° C. for 72 hours at which time results are recorded. Readings are by visual observation.” for “wells.)”

[29] = tested on: various Gram-positive and Gram-negative bacteria; assay: antibacterial activity (general statement); format: cell-based
Method: as §1

C[C@H]1O[C@@H]2C3=C(C(=O)C(=N)C(C(N)=O)=C3O)[C@@]1(O)C[C@H]2O [U-58,431]
slightly soluble: solubility ([2]; chloroform) | solubility ([2]; cold methylene chloride)
active: activity against P. vulgaris [1] | activity against fungi [14] | activity against Gram-positive and Gram-negative bacteria [29]
-: inhibition at indicated concentration ([15]; 1000 mcg/ml) | inhibition at indicated concentration ([21]; 1000 mcg/ml) | inhibition at indicated concentration ([27]; 1000 mcg/ml)
soluble: solubility ([2]; ethanol) | solubility ([2]; methanol) | solubility ([2]; water)
250 µg/mL: Minimum Inhibitory Concentration [9] | Minimum Inhibitory Concentration [10] | Minimum Inhibitory Concentration [11]
125 µg/mL: Minimum Inhibitory Concentration [5] | Minimum Inhibitory Concentration [6] | Minimum Inhibitory Concentration [7] | Minimum Inhibitory Concentration [8] | Minimum Inhibitory Concentration [12] | Minimum Inhibitory Concentration [13]
+: inhibition at indicated concentration ([15]; 1 mcg/ml) | inhibition at indicated concentration ([15]; 10 mcg/ml) | inhibition at indicated concentration ([15]; 100 mcg/ml) | inhibition at indicated concentration ([16]; 1 mcg/ml) | inhibition at indicated concentration ([16]; 10 mcg/ml) | inhibition at indicated concentration ([16]; 100 mcg/ml) | inhibition at indicated concentration ([16]; 1000 mcg/ml) | inhibition at indicated concentration ([17]; 1 mcg/ml) | inhibition at indicated concentration ([17]; 10 mcg/ml) | inhibition at indicated concentration ([17]; 100 mcg/ml) | inhibition at indicated concentration ([17]; 1000 mcg/ml) | inhibition at indicated concentration ([18]; 1 mcg/ml) | inhibition at indicated concentration ([18]; 10 mcg/ml) | inhibition at indicated concentration ([18]; 100 mcg/ml) | inhibition at indicated concentration ([18]; 1000 mcg/ml) | inhibition at indicated concentration ([19]; 1 mcg/ml) | inhibition at indicated concentration ([19]; 10 mcg/ml) | inhibition at indicated concentration ([19]; 100 mcg/ml) | inhibition at indicated concentration ([19]; 1000 mcg/ml) | inhibition at indicated concentration ([20]; 1 mcg/ml) | inhibition at indicated concentration ([20]; 10 mcg/ml) | inhibition at indicated concentration ([20]; 100 mcg/ml) | inhibition at indicated concentration ([20]; 1000 mcg/ml) | inhibition at indicated concentration ([21]; 1 mcg/ml) | inhibition at indicated concentration ([21]; 10 mcg/ml) | inhibition at indicated concentration ([21]; 100 mcg/ml) | inhibition at indicated concentration ([22]; 1 mcg/ml) | inhibition at indicated concentration ([22]; 10 mcg/ml) | inhibition at indicated concentration ([22]; 100 mcg/ml) | inhibition at indicated concentration ([22]; 1000 mcg/ml) | inhibition at indicated concentration ([23]; 1 mcg/ml) | inhibition at indicated concentration ([23]; 10 mcg/ml) | inhibition at indicated concentration ([23]; 100 mcg/ml) | inhibition at indicated concentration ([23]; 1000 mcg/ml) | inhibition at indicated concentration ([24]; 1 mcg/ml) | inhibition at indicated concentration ([24]; 10 mcg/ml) | inhibition at indicated concentration ([24]; 100 mcg/ml) | inhibition at indicated concentration ([24]; 1000 mcg/ml) | inhibition at indicated concentration ([25]; 1 mcg/ml) | inhibition at indicated concentration ([25]; 10 mcg/ml) | inhibition at indicated concentration ([25]; 100 mcg/ml) | inhibition at indicated concentration ([25]; 1000 mcg/ml) | inhibition at indicated concentration ([26]; 1 mcg/ml) | inhibition at indicated concentration ([26]; 10 mcg/ml) | inhibition at indicated concentration ([26]; 100 mcg/ml) | inhibition at indicated concentration ([26]; 1000 mcg/ml) | inhibition at indicated concentration ([27]; 1 mcg/ml) | inhibition at indicated concentration ([27]; 10 mcg/ml) | inhibition at indicated concentration ([27]; 100 mcg/ml) | inhibition at indicated concentration ([28]; 1 mcg/ml) | inhibition at indicated concentration ([28]; 10 mcg/ml) | inhibition at indicated concentration ([28]; 100 mcg/ml) | inhibition at indicated concentration ([28]; 1000 mcg/ml)
1.0 µg/mL: Minimum Inhibitory Concentration [4]
62.5 µg/mL: Minimum Inhibitory Concentration [3]
